Values joined by “and” are separate entries in the source; they are usually repeats but may differ in a detail not shown here. Identical values can stand only once.
Test system: α7 integrin promoter
Assay: muscle cell-based assay: α7βgal+/− myoblasts/myotubes, LacZ reporter, β-galactosidase cleavage of FDG
Design: species or system mouse; Results in α7+/− β-galactosidase assay: scale not given here
Details: Myoblasts
How it was run: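 Fluorescein generated from FDG by β-galactosidase reports α7 integrin promoter activity in differentiated myoblasts from α7+/− LacZ knock-in pups. Screening hits then went to dose-response, western blotting and a myostatin counterscreen.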

Row | Compound | Results in α7+/− β-galactosidase assay (0.5 uM) | Results in α7+/− β-galactosidase assay (1 uM) | Results in α7+/− β-galactosidase assay (5 uM) | Results in α7+/− β-galactosidase assay (10 uM) | Results in α7+/− β-galactosidase assay (20 uM) | Results in α7+/− β-galactosidase assay (40 uM)
1 | COc1ccc(CNC(=O)C2CCCN(S(=O)(=O)c3c(C)noc3/C=C/N(C)C)C2)cc1 (stereo not shown) [drawing 579] | −0.00404 | 0.03462 | −0.04768 | −0.2043 | −0.2235 | −0.5821
2 | CC(O)CNc1nc2c(c(=O)n(Cc3ccc(Br)cc3)c(=O)n2C)n1C (stereo not shown) [drawing 580] | 0.04963 | 0.02595 | −0.05885 | −0.1174 | −0.1471 | −0.218
3 | COc1ccc(Cl)cc1NC(=O)c1cc(-c2cc(C)ccc2O)[nH]n1 [drawing 581] | 0.01879 | 0.1148 | −0.07708 | −0.1804 | −0.08756 | −0.06105
4 | CCC(C)C(CC)NC(=O)CSc1nnc(COc2ccc(Cl)cc2)o1 (stereo not shown) [drawing 582] | 0.3279 | 0.05348 | 0.1357 | −0.1014 | −0.1787 | −0.4133
5 | N#Cc1ccc(Sc2nc3ccccc3[nH]2)cc1C#N [drawing 584] | 0.3095 | 0.07925 | 0.2487 | 0.1199 | 0.003655 | −0.1111
6 | COc1cc(/C=C/CN2CCN(Cc3ccc(C)o3)C(CCO)C2)ccc1O (stereo not shown) [drawing 585] |  |  | 0.1427 and 0.1728 |  |  | 
7 | COc1ccccc1C(=O)OCc1ccc2sc(C)nc2c1 [drawing 586] | 0.191 | −0.07182 | 0.1329 | 0.00833 | 0.1184 | 0.01583
8 | NC(=O)COc1ccc(C(=O)/C=C2\C(=O)Nc3ccccc32)cc1 [drawing 587] | 0.211 | −0.06344 | −0.1959 | −0.647 | −0.8153 | −0.9741
9 | CC1(C)Cc2ccccc2-c2nc3n(c(=O)c21)CCS3 [drawing 588] | 0.2141 | 0.0159 | 0.02034 | 0.02377 | −0.2051 | −0.4207
10 | CN(/C(=N/S(=O)(=O)c1cccs1)c1ccccc1)c1ccccc1 [drawing 589] | 0.2361 | −0.03677 | −0.05696 | −0.01934 | −0.0583 | −0.2263
11 | CSc1ccc(S(=O)(=O)NCc2ccccc2)cc1 [drawing 590] | −0.1174 | −0.07696 | 0.06657 | 0.6252 | 0.01406 | −0.1992
12 | O=C1Nc2ccccc2/C1=C/c1ccccc1F [drawing 591] | −0.0677 | −0.05193 | 0.009111 | 0.1004 | −0.4184 | −0.7444

From patent US10028992B2, “Methods of treating muscular dystrophy” (BOARD OF REGENTS OF THE NEVADA SYSTEM OF HIGHER EDUCATION …, priority 2012, dated 2018)
